Assay results reported in PMC3541360 (2013).

How the values were obtained:
[1] = system: MNSG4 (oligo TrMNS-I) (DNA, G4) TGGGTCTGAGGGAGGAGGGGCTGGGGGC; assay: CD melting, 295 nm; conditions: 100 mM K+; 10 mM Tris-HCl pH 7.4; 5 µM DNA, 10 µM compound; absolute Tm, free DNA 71.4±0.5 °C
[2] = system: -80 G4 (oligo Tr-80-I) (DNA, G4) CGGGGGCGCGTGAGGGGCGGGGTGGGC; assay: fluorescent intercalator displacement (thiazole orange); conditions: 60 mM K+; 10 mM potassium cacodylate pH 7.4, 50 mM KCl; 0.25 µM DNA, 0.50 µM thiazole orange displaced
[3] = system: MNSG4 (oligo TrMNS-I) (DNA, G4) TGGGTCTGAGGGAGGAGGGGCTGGGGGC; assay: as above; conditions: 60 mM K+; 10 mM potassium cacodylate pH 7.4, 50 mM KCl; 0.25 µM DNA, 0.50 µM thiazole orange displaced

| SMILES | Tm (with ligand) [1] [°C] | −80 G4DC50 [2] [µM] | MSN1DC50 [3] [µM] |
| --- | --- | --- | --- |
| [Cl-].[Cl-].[Cl-].[Cl-].[Cu+2].[Cu+2].c1ccc(CN(CCOc2cc(-c3ccccn3)nc(-c3ccccn3)c2)Cc2ccccn2)nc1 | 86.2±2.1 | 0.19 | 0.31 |
| [Cl-].[Cl-].[Pt+2].[Pt+2].c1ccc(CN(CCOc2cc(-c3ccccn3)nc(-c3ccccn3)c2)Cc2ccccn2)nc1 | – | 2.22 | 0.39 |
| [Pt+2].[S-]CCN1CCCCC1.c1ccc(-c2cc(OCCN3CCOCC3)cc(-c3ccccn3)n2)nc1 | – | 0.55 | 0.76 |
